According to patent US9572785B2, “DP2 antagonist and uses thereof” (Brickell Biotech, Inc., priority 2009, dated 2017):
Where two headings read alike, the source gives them in different places.

Assays:
[1] = molecular target: Cytochrome P450 Enzyme 2C19 (Homo sapiens, UniProt P33261); test: Extracellular cytochrome P450 inhibition, CYP2C19
Protocol: (§1) In general, microsomes at protein concentrations as defined in Table 12 were mixed with buffer (100 mM KH2PO4, pH 7.4), MgCl2 (6 mM)) and substrate, and were kept on ice. Aliquots of this mixture (89 μL) were delivered to each well of a 96-well polypropylene plate which contained an aliquot of inhibitor (1 μL) in acetonitrile:water (1:1). Final solvent concentrations were less than 1% (v/v). Incubations were initiated with the addition of 10 μL β-NADPH (10 mM stock) to a final volume of 100 μL. […] Samples were centrifuged at 4° C., and supernatant was transferred for LC-MS/MS analysis.

[2] = Properties of the amorphous phase; type: physicochemical; conditions: from 0% to 90% relative humidity
[3] = Canine studies of formulations; type: in vivo; conditions: oral formulations
[4] = molecular target: Cytochrome P450 Enzyme 2C9 (Homo sapiens, UniProt P11712); test: Extracellular cytochrome P450 inhibition, CYP2C9; type: in vitro ADME; conditions: diclofenac 4′-hydroxylation, microsomes
Cytochrome P450 Enzyme 2C9, sequence (P11712 whole entry): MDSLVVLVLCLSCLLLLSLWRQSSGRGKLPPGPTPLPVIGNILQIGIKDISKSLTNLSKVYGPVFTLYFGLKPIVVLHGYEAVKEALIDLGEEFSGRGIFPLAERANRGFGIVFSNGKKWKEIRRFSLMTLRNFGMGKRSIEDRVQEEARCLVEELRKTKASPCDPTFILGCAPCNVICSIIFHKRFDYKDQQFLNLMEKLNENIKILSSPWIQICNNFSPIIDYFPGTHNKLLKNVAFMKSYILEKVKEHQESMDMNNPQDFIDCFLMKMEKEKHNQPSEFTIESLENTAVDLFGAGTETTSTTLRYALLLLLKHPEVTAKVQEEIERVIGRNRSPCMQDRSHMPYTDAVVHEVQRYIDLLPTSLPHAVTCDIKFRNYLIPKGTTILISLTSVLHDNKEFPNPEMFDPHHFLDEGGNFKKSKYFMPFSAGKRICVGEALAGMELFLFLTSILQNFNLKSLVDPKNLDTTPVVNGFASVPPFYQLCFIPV
Protocol: as §1

[5] = molecular target: Cytochrome P450 Enzyme 2D6 (Homo sapiens, UniProt P10635); test: Extracellular cytochrome P450 inhibition, CYP2D6; type: in vitro ADME; conditions: dextromethorphan O-demethylation, microsomes
Cytochrome P450 Enzyme 2D6, sequence (P10635 whole entry): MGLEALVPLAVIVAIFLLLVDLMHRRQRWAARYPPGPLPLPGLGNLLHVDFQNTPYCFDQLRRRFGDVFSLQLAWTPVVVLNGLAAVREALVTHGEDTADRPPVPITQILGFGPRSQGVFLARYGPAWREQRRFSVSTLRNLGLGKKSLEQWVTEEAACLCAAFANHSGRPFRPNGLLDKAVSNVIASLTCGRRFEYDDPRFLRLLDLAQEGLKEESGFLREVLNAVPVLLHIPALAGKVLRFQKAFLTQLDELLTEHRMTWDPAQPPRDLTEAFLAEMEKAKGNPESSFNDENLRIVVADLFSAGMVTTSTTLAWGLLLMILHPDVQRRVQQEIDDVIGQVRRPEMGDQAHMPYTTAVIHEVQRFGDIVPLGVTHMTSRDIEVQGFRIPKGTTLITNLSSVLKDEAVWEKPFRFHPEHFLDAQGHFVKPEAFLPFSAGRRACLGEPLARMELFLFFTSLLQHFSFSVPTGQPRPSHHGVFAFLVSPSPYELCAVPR
Protocol: as §1

[6] = molecular target: T1, Cytochrome P450 Enzyme 1A2 (Homo sapiens, UniProt P05177)
T1 sequence (P05177 1-516): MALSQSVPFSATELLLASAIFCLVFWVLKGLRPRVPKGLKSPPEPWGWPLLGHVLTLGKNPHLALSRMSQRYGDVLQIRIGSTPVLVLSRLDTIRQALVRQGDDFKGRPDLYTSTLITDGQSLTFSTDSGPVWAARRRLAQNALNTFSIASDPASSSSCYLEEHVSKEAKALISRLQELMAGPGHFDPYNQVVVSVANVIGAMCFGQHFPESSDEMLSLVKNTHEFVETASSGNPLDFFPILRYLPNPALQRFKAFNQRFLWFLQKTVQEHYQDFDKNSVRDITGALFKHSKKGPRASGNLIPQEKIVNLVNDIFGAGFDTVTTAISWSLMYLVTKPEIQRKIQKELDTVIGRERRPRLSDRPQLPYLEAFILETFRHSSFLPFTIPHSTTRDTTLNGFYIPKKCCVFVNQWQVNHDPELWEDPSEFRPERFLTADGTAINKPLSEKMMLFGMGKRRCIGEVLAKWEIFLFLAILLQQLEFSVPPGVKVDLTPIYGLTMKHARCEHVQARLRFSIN
Protocol: as §1

[7] = molecular target: Cytochrome P450 Enzyme 3A4 (Homo sapiens, UniProt P08684); conditions: microsomes
Cytochrome P450 Enzyme 3A4, sequence (P08684 whole entry): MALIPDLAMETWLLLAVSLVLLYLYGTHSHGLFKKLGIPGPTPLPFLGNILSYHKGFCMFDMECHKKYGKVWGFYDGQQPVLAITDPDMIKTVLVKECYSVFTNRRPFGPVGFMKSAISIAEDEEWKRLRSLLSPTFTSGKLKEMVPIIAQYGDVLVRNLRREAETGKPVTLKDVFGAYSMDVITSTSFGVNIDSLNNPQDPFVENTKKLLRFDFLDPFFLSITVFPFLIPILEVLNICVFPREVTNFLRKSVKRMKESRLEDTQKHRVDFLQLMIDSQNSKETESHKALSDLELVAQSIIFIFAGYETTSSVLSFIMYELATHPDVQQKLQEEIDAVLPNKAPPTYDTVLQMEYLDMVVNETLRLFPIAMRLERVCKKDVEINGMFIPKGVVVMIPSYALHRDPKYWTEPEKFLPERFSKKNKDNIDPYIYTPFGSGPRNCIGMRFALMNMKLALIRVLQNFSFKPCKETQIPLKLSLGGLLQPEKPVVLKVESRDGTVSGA
Protocol: as §1

[8] = test system: mouse model of ovalbumin (OVA)-induced allergic rhinitis; test: Mouse allergic rhinitis model; type: in vivo; conditions: daily 10 mg/kg PO, OVA-primed and challenged mice
[9] = test system: DK-PGD2-induced peripheral blood leukocyte influx; test: Guinea pig IV-DKPGD2-induced peripheral blood leukocyte influx; type: in vivo; conditions: for ED50: Cavia porcellus, Leukocyte, oral
Protocol: Methods were adapted from those detailed Shichijo et al., 2003, Journal of Pharmacology and Experimental Therapeutics, 307:518-525. Male Hartley guinea pigs were immunized with ovalbumin (OVA) on day 0 by intraperitoneal (IP) injection of 1 ml of a 100 μg/ml solution in Imject Alum. They were then used in the DK-PGD2 procedure between days 14 and 21. Subjects were randomly assigned to receive either vehicle (0.5% methyl cellulose, 4 ml/kg, oral (PO)) or one of three to four doses of test compound. Two hours or eighteen hours after dosing, animals were anesthetized with ketamine and challenged with DK-PGD2 (1 mg/kg, IV). Thirty minutes after IV administration, blood was collected via the marginal ear vein into EDTA tubes for cell analysis. 10 μl blood was lysed in 190 μl water followed by a further 20-fold dilution in PBS. A 10 μl fraction was mixed with equal parts trypan blue and loaded on a hemocytometer. Cells were visualized at a magnification of 40× using a LabPro light microscope and totals counted and recorded. Cells are expressed as total cells×10^8 per ml of blood. Inhibition of this effect by select compounds is determined statistically using Graphpad prism.

[10] = test system: guinea pig OVA model of allergen-induced asthma; test: Guinea pig allergic asthma model; type: in vivo; conditions: 3 mg/kg and 30 mg/kg b.i.d. PO, 24 hours after aerosolized OVA challenge
Protocol: Aerosolized OVA challenge to OVA-primed guinea pigs causes a significant influx of cells into the bronchoalveolar lavage fluid taken 24 hours after challenge. This increase is primarily from influx of eosinophils and neutrophils with a small proportion from macrophages.

[11] = in vivo; conditions: Hartley, guinea pig, plasma, po
[12] = molecular target: T2, DP2 receptor (Homo sapiens, UniProt Q9Y5Y4); test: Phase I study, ex vivo PGD2-induced blood eosinophil shape change (ESC); type: in vivo; set-up: endogenous in cells; host or cells: eosinophils in human whole blood; conditions: humans
T2 sequence (Q9Y5Y4 1-395): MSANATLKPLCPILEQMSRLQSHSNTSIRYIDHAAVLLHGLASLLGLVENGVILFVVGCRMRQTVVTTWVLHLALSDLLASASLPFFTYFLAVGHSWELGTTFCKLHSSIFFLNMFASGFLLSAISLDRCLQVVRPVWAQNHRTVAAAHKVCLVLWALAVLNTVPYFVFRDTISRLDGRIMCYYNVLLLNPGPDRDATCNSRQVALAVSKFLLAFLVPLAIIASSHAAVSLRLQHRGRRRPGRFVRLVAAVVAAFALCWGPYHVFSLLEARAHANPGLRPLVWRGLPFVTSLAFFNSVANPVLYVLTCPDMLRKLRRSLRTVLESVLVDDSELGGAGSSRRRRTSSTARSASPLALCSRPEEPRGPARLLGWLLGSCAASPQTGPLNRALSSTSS
Protocol: Blood is drawn from consenting human volunteers in EDTA vacutainer tubes and used within 1 hr of draw. […] The blood is vortexed and incubated at 37° C. for 5 minutes. 5 μl of 1 μM PGD2 in PBS is added for a final concentration of 50 nM and the tubes briefly vortexed. The reactions are incubated for exactly 5 minutes at 37° C. and then terminated by placing the tubes on ice and immediately adding 250 μl of ice-cold 1:4 diluted Cytofix (BD Biosciences). The reactions are transferred to 12×75 mM polystyrene round bottom tubes and the red blood cells lysed by the addition of 3 ml ammonium chloride lysing solution (150 mM NH4Cl, 10 mM KHCO3, 0.1 mM EDTA disodium salt) and incubation at room temperature for 15 minutes. […] The cells are resuspended in 0.2 ml of ice-cold 1:4 diluted Cytofix (BD Biosciences) and analyzed on a FACSCalibur (BD Biosciences) within 2 hours. […] The specific change in shape induced by PGD2 was calculated as the difference between the percentage of high forward scatter eosinophils in the presence and absence of PGD2.
At varying times after dosing blood is drawn for both pharmacokinetic analyses of drug concentration in blood, and also for PGD2 challenge and eosinophil shape change determination. The extent of receptor blockage is determined from the relationship between drug blood concentration and percentage inhibition of eosinophil shape change.

[13] = Compound 1 2 mg/kg intravenous, semi-quantitative
Protocol: Rats with surgically placed bile duct and jugular vein cannula were purchased from Charles River Laboratories and allowed to acclimate for 2 days. […] Bile was collected at time-points 0-2, 2-5, 5-8, and 8-24 hrs post-dose in 8 mL scintillation vials and stored at −40° C. until LC-MS/MS analysis.
Analyses were performed using a Waters YMC ODS-AQ column (2.1×150 mm; 3 μm) linked to a Shimadzu LC-10AD VP with SCL-10A VP system controller. Tandem mass spectrometric (MS/MS) detection was carried out on a Sciex ABI3200 QTrap in the positive ion mode (ESI) by multiple reaction monitoring, precursor ion scan, and enhanced product ion scan. The mobile phases contained 10 mM ammonium acetate in water with 0.05% formic acid (solvent A) and 10 mM ammonium acetate in 50% acetonitrile/50% methanol with 0.05% formic acid (solvent B). […] Analytes were separated using a linear gradient as follows:
Analytes were separated using a linear gradient as follows:

Cytochrome P450 Enzyme 2C19, sequence (P33261 whole entry): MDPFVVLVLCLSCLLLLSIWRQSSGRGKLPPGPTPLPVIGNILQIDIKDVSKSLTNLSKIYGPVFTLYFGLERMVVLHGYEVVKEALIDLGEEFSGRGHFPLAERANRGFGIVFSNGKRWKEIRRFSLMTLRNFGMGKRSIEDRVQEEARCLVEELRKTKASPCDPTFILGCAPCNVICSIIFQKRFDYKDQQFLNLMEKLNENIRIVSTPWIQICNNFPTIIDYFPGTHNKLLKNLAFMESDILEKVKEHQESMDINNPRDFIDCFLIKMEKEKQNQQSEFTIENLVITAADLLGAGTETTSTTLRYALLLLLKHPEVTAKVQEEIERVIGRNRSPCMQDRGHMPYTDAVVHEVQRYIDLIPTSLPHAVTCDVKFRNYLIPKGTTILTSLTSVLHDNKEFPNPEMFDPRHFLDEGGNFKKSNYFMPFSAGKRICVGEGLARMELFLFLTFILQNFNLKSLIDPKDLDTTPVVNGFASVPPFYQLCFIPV

Compound: CCC1(c2ccccc2)C(=O)NC(=O)N(Cc2ccccc2)C1=O (single isomer, unassigned; (-)) [(-)-N-3-benzyl-phenobarbital, reference compound]
- IC50 ([1]; mephenytoin 4′-hydroxylation, microsomes): 1.2 µM

Compound: CCN(Cc1cc(C(F)(F)F)ccc1-c1cc(CC(=O)[O-])ccc1OC)C(=O)NCc1ccccc1.[Na+] [Compound 2, [2′-(3-benzyl-1-ethyl-ureidomethyl)-6-methoxy-4′-trifluoromethyl-biphenyl-3-yl]-acetic acid, sodium salt]
- hygroscopicity, weight change [2]: 36%
- absorption [3]: rapidly absorbed in the stomach and upper gastrointestinal tract
- IC50 [4]: > 50 µM
- IC50 [1]: > 50 µM
- IC50 [5]: > 50 µM
- IC50 [6]: > 50 µM
- IC50 ([7]; IC50, midazolam 1-hydroxylation): 40 µM
- IC50 ([7]; IC50, testosterone 6β-hydroxylation): > 50 µM
- nasal rubs [8]: trend toward a decrease
- sneezing behavior [8]: significantly reduced sneezing behavior
- associated EC50 (plasma concentration) ([9]; 2 hr study): 0.055 µM
- inhibition of DK-PGD2-induced peripheral blood leukocyte increase ([9]; 2 hr study, oral 0.1 mg/kg): 21%
- inhibition of DK-PGD2-induced peripheral blood leukocyte increase ([9]; 2 hr study, oral 1 mg/kg): 59%
- inhibition of DK-PGD2-induced peripheral blood leukocyte increase ([9]; 2 hr study, oral 10 mg/kg): 62%
- inhibition of DK-PGD2-induced peripheral blood leukocyte increase ([9]; 2 hr study, oral 30 mg/kg): 80%
- observed EC50 ([9]; 18 hr study): < 0.04 µM
- inhibition of peripheral blood leukocyte numbers ([9]; 18 hr study, oral 1 mg/kg): 0%
- inhibition of peripheral blood leukocyte numbers ([9]; 18 hr study, oral 10 mg/kg): 29%
- inhibition of peripheral blood leukocyte numbers ([9]; 18 hr study, oral 30 mg/kg): 50%
- inhibition of peripheral blood leukocyte numbers ([9]; 18 hr study, oral 100 mg/kg): 77%
- ED50 ([9]; 2 hr study, read-out: ED50): 0.85 mg/kg
- ED50 ([9]; 18 hr study, read-out: calculated ED50): 30 mg/kg
- cellular influx into bronchoalveolar lavage fluid [10]: dose-dependently reduced total cellular influx including eosinophils and neutrophils
- concentration at 2.5 h ([11]; 0.1 mg/kg): 22 nM
- concentration at 2.5 h ([11]; 1 mg/kg): 61 nM
- concentration at 2.5 h ([11]; 10 mg/kg): 222 nM
- concentration at 2.5 h ([11]; 30 mg/kg): 727 nM
- inhibition at 100 mg ([12]; at 24 hours, 100 mg dose): 75 to 90%
- inhibition of the PGD2-induced eosinophil shape change (ESC) ([12]; at Cmax, doses equal to or greater than 30 mg): 80-100%

Compound: CCN(Cc1cc(C(F)(F)F)ccc1-c1cc(CC(=O)O[C@@H]2O[C@H](C(=O)O)[C@@H](O)[C@H](O)[C@H]2O)ccc1OC)C(=O)NCc1ccccc1 [Compound M2, acyl gluconuride of [2′-(3-benzyl-1-ethyl-ureidomethyl)-6-methoxy-4′-trifluoromethyl-biphenyl-3-yl]-acetic acid]
- metabolite in rat bile, peak area relative to parent [13]: 273 % of parent
